In brackets after ≈: the same amount, converted by molar mass.
Legend:
[1] = Antibacterial activity against Salmonella pullorum assessed as inhibition of bacterial growth incubated for 20 hrs by absorbance based analysis; assay type: functional, Salmonella enterica subsp. enterica serovar Pullorum; conditions: Salmonella enterica
[2] = tested on: Staphylococcus epidermidis; assay: Antibacterial activity against methicillin-resistant Staphylococcus epidermidis assessed as inhibition of bacterial growth incubated for 20 hrs by absorbance based analysis; assay type: functional
Staphylococcus aureus [3] = assay: microbe, parasite or virus in culture; assay type: functional; conditions: ATCC25923, time 20 hrs
Staphylococcus aureus [4] = assay: microbe, parasite or virus in culture; assay type: functional; conditions: ATCC29213, time 20 hrs
Staphylococcus aureus [5] = assay: microbe, parasite or virus in culture; assay type: functional; conditions: time 20 hrs
Escherichia coli = assay: microbe, parasite or virus in culture; assay type: functional; conditions: ATCC25922, time 20 hrs

| Compound | MIC [1] [mg/L] | MIC [2] [mg/L] | MIC (Staphylococcus aureus [3]) [mg/L] | MIC (Staphylococcus aureus [4]) [mg/L] | MIC (Staphylococcus aureus [5]) [mg/L] | MIC (Escherichia coli) [mg/L] |
| --- | --- | --- | --- | --- | --- | --- |
| C=C[C@]1(C)C[C@@H](OC(=O)CSc2nc3cccc(F)c3c(=O)[nH]2)[C@]2(C)[C@H](C)CC[C@]3(CCC(=O)[C@H]32)[C@@H](C)[C@@H]1O | > 64 | 2 (≈ 3.59 µM) | 0.25 (≈ 0.449 µM) | 0.25 (≈ 0.449 µM) | 0.25 (≈ 0.449 µM) | > 64 |
| C=C[C@]1(C)C[C@@H](OC(=O)CSc2nc3ccc(OC)cc3c(=O)[nH]2)[C@]2(C)[C@H](C)CC[C@]3(CCC(=O)[C@H]32)[C@@H](C)[C@@H]1O | > 64 | 4 (≈ 7.03 µM) | 0.25 (≈ 0.44 µM) | 0.125 (≈ 0.22 µM) | 0.25 (≈ 0.44 µM) | > 64 |
| C=C[C@]1(C)C[C@@H](OC(=O)CSc2nc3ccccc3c(=O)n2C2CCCCC2)[C@]2(C)[C@H](C)CC[C@]3(CCC(=O)[C@H]32)[C@@H](C)[C@@H]1O | > 64 | > 64 | > 64 | > 64 | > 64 | > 64 |
| C=C[C@]1(C)C[C@@H](OC(=O)CSc2nc3cccc(OC)c3c(=O)[nH]2)[C@]2(C)[C@H](C)CC[C@]3(CCC(=O)[C@H]32)[C@@H](C)[C@@H]1O | > 64 | 4 (≈ 7.03 µM) | 0.25 (≈ 0.44 µM) | 0.25 (≈ 0.44 µM) | 0.25 (≈ 0.44 µM) | > 64 |
| C=C[C@]1(C)C[C@@H](OC(=O)CSc2nc3ccccc3c(=O)n2CC)[C@]2(C)[C@H](C)CC[C@]3(CCC(=O)[C@H]32)[C@@H](C)[C@@H]1O | > 64 | 2 (≈ 3.53 µM) | 0.125 (≈ 0.221 µM) | 0.125 (≈ 0.221 µM) | 0.25 (≈ 0.441 µM) | > 64 |
| C=C[C@]1(C)C[C@@H](OC(=O)CSc2nc3ccc(Cl)cc3c(=O)[nH]2)[C@]2(C)[C@H](C)CC[C@]3(CCC(=O)[C@H]32)[C@@H](C)[C@@H]1O | > 64 | 1 (≈ 1.74 µM) | 0.25 (≈ 0.436 µM) | 0.25 (≈ 0.436 µM) | 0.25 (≈ 0.436 µM) | > 64 |
| C=C[C@]1(C)C[C@@H](OC(=O)CSc2nc3ccccc3c(=O)n2C)[C@]2(C)[C@H](C)CC[C@]3(CCC(=O)[C@H]32)[C@@H](C)[C@@H]1O | > 64 | 0.5 (≈ 0.905 µM) | 0.125 (≈ 0.226 µM) | 0.063 (≈ 0.114 µM) | 0.25 (≈ 0.452 µM) | 64 (≈ 116 µM) |
| C=C[C@]1(C)C[C@@H](OC(=O)CSc2nc3ccc(F)cc3c(=O)[nH]2)[C@]2(C)[C@H](C)CC[C@]3(CCC(=O)[C@H]32)[C@@H](C)[C@@H]1O | > 64 | 2 (≈ 3.59 µM) | 0.25 (≈ 0.449 µM) | 0.25 (≈ 0.449 µM) | 0.5 (≈ 0.898 µM) | > 64 |
| C=C[C@]1(C)C[C@@H](OC(=O)CSc2nc3sccc3c(=O)[nH]2)[C@]2(C)[C@H](C)CC[C@]3(CCC(=O)[C@H]32)[C@@H](C)[C@@H]1O | > 64 | 1 (≈ 1.84 µM) | 0.25 (≈ 0.459 µM) | 0.25 (≈ 0.459 µM) | 0.25 (≈ 0.459 µM) | 64 (≈ 117 µM) |
| C=C[C@]1(C)C[C@@H](OC(=O)CSc2nc3c(Br)cccc3c(=O)[nH]2)[C@]2(C)[C@H](C)CC[C@]3(CCC(=O)[C@H]32)[C@@H](C)[C@@H]1O | > 64 | 2 (≈ 3.24 µM) | 0.25 (≈ 0.405 µM) | 0.5 (≈ 0.81 µM) | 0.25 (≈ 0.405 µM) | > 64 |
| C=C[C@]1(C)C[C@@H](OC(=O)CSc2nc3cc(C)ccc3c(=O)[nH]2)[C@]2(C)[C@H](C)CC[C@]3(CCC(=O)[C@H]32)[C@@H](C)[C@@H]1O | > 64 | 2 (≈ 3.62 µM) | 0.25 (≈ 0.452 µM) | 0.5 (≈ 0.905 µM) | 0.5 (≈ 0.905 µM) | > 64 |
| C=C[C@]1(C)C[C@@H](OC(=O)CSc2nc3cccc([N+](=O)[O-])c3c(=O)[nH]2)[C@]2(C)[C@H](C)CC[C@]3(CCC(=O)[C@H]32)[C@@H](C)[C@@H]1O | > 64 | 4 (≈ 6.85 µM) | 0.25 (≈ 0.428 µM) | 0.25 (≈ 0.428 µM) | 0.25 (≈ 0.428 µM) | > 64 |
| C=C[C@]1(C)C[C@@H](OC(=O)CSc2nc3ccccc3c(=O)[nH]2)[C@]2(C)[C@H](C)CC[C@]3(CCC(=O)[C@H]32)[C@@H](C)[C@@H]1O | > 64 | 1 (≈ 1.86 µM) | 0.25 (≈ 0.464 µM) | 0.25 (≈ 0.464 µM) | 0.25 (≈ 0.464 µM) | > 64 |

Reference: ChEMBL document CHEMBL5352460, “Antibacterial activity evaluation of pleuromutilin derivatives with 4(3H)-quinazolinone scaffold against methicillin-resistant Staphylococcusaureus” (Eur J Med Chem, 2023)
